Experiments:
Candida albicans = test: Antimicrobial activity against Candida albicans ATCC 10231 incubated for 16 hrs by microplate reader method; format: functional, organism-based; conditions: ATCC 10231, 16 h
SW620/AD300 = test: Cytotoxicity against human SW620/AD300 cells incubated for 48 hrs by MTT assay; format: functional, cell-based; conditions: SW620/AD300, 48 h
NCI-H460 = test: Cytotoxicity against human NCI-H460 cells incubated for 48 hrs by MTT assay; format: functional, cell-based; conditions: NCI-H460, 48 h
[1] = target: ATP-dependent translocase ABCB1 (Homo sapiens, UniProt P08183); test: Reversal of P-glycoprotein mediated doxorubicin resistance in human SW620/AD300 cells overexpressing P-gp assessed as gain in sensitivity against doxorubicin at 2.5 uM incubated for 52 hrs by MTT assay; format: cell-based; conditions: sw620/ad300, 52 h
Sequence of ATP-dependent translocase ABCB1 (P08183 whole entry): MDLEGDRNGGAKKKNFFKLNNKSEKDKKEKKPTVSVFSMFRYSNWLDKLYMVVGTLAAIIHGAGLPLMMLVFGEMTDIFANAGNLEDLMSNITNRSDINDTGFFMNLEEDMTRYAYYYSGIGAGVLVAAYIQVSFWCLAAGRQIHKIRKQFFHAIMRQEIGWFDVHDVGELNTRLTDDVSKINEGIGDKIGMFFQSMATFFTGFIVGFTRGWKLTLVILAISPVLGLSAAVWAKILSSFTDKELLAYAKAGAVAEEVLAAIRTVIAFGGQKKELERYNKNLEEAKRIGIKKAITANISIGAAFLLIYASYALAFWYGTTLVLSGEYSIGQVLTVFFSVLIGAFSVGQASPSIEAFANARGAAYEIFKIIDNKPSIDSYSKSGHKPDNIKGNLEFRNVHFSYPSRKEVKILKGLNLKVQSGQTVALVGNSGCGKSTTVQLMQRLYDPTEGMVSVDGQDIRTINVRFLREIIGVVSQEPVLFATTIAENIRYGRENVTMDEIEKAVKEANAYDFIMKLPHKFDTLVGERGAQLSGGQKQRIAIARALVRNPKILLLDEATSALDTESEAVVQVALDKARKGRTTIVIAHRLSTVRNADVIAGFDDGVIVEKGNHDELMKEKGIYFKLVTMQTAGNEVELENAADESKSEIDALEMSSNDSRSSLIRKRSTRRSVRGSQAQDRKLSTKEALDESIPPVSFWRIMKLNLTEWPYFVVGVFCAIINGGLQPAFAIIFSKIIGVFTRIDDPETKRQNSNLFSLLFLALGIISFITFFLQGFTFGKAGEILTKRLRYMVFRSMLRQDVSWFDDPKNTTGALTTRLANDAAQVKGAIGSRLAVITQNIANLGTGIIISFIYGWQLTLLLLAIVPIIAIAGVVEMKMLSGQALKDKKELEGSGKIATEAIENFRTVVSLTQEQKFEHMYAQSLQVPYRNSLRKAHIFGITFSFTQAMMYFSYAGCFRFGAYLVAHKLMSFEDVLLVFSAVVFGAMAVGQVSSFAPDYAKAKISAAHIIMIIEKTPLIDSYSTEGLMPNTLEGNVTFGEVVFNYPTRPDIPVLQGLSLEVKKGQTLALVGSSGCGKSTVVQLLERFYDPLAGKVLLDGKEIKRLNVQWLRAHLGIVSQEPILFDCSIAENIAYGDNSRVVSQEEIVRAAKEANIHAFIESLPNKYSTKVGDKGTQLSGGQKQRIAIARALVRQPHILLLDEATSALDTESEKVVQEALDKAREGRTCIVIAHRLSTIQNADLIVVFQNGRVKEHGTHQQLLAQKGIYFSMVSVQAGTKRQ

COC(=O)C[C@H]1Cc2c(c(O)c3c4c(c5n(c24)[C@H]([C@@H](C)O)CC5)C=CC3=O)[C@H](C)O1 was tested, and the IC50 (Candida albicans) was > 30 µM, the IC50 (SW620/AD300) was > 30 µM and the IC50 (NCI-H460) was > 30 µM. The Activity [1] was 45%.

With C[C@@H]1OC(CC(=O)O)=Cc2c1c(O)c1c3c(c4n(c23)[C@H]([C@@H](C)O)CC4)C=CC1=O the IC50 (Candida albicans) was > 30 µM, the IC50 (SW620/AD300) was > 30 µM and the IC50 (NCI-H460) was > 30 µM. For the same compound, the Activity [1] was 45%.

For C[C@H]1Oc2c(O)c3c4c(c5n(c4c2C[C@H](CC(=O)O)O1)[C@H]([C@@H](C)O)CC5)C=CC3=O, the IC50 (Candida albicans) was > 30 µM, the IC50 (SW620/AD300) was > 30 µM and the IC50 (NCI-H460) was > 30 µM.

In the case of C[C@H]1O[C@H](CC(=O)O)Cc2c1c(O)c1c3c(c4n(c23)[C@@H]([C@@H](C)O)CC4)C=CC1=O, the IC50 (Candida albicans) is reported as > 30 µM, the IC50 (SW620/AD300) is reported as > 30 µM and the IC50 (NCI-H460) is reported as > 30 µM. The Activity [1] was 45%.

C[C@@H](O)[C@@H]1CCc2c3c4c(c(O)c(O)c(C[C@@H](O)CC(=O)O)c4n21)C(=O)C=C3 was tested, and the IC50 (Candida albicans) was > 30 µM, the IC50 (SW620/AD300) was > 30 µM and the IC50 (NCI-H460) was > 30 µM.

In the case of C[C@@H]1O[C@@H](CC(=O)O)C(=O)c2c1c(O)c1c3c(c4n(c23)[C@H]([C@@H](C)O)CC4)C=CC1=O, the IC50 (Candida albicans) is reported as > 30 µM, the IC50 (SW620/AD300) is reported as > 30 µM and the IC50 (NCI-H460) is reported as > 30 µM. It also gave an Activity [1] of 45%.

With C[C@H]1OC(CC(=O)O)=Cc2c1c(O)c1c3c(c4n(c23)[C@H]([C@@H](C)O)CC4)C=CC1=O the IC50 (Candida albicans) was > 30 µM, the IC50 (SW620/AD300) was > 30 µM and the IC50 (NCI-H460) was > 30 µM. It also gave an Activity [1] of 45%.

With C[C@H]1O[C@]2(C)CC(=O)O[C@]2(C)c2c1c(O)c1c3c(c4n(c23)[C@@H]([C@@H](C)O)CC4)C=CC1=O the IC50 (Candida albicans) was > 30 µM, the IC50 (SW620/AD300) was > 30 µM and the IC50 (NCI-H460) was > 30 µM.

— ChEMBL document CHEMBL5131460, “Glenthenamines A-F: Enamine Pyranonaphthoquinones from the Australian Pasture Plant Derived Streptomyces sp. CMB-PB042” (J Nat Prod, 2022)
